Molecular target: ATX (human His-tagged) (Homo sapiens (Human), UniProt Q13822)
Test: Human ATX enzyme inhibition assay (fluorescence quenching, MR121 substrate)
Assay type: biochemical
Conditions: 30 nM ATX, 1 μM MR121 substrate, 30° C., pH 8.0
Summary of the method: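 Tris-HCl buffer at pH 8.0 contained 140 mM NaCl, 5 mM KCl, 1 mM each CaCl2 and MgCl2, and 0.01% Triton X-100. The MR121 substrate (1 μM final) was incubated with enzyme for 15 min at 30 °C, and activity was read by fluorescence quenching.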

SMILES | IC50 [nM]
CC(C)c1cc(C#N)ccc1OCC(=O)N1C[C@@H]2CN(C(=O)c3ccc4[nH]nnc4c3)C[C@H]2C1 [Example 19.03, 4-{2-[(3aS,6aS)-5-(1H-benzotriazole-5-carbonyl)-hexahydro-pyrrolo[3,4-c]pyrrol-2-yl]-2-oxo-ethoxy}-3-isopropyl-benzonitrile] | 8
CC(=O)c1ccccc1OCC(=O)N1C[C@@H]2CN(C(=O)c3ccc4[nH]nnc4c3)C[C@H]2C1 [Example 19.04, 2-(2-acetyl-phenoxy)-1-[(3aS,6aS)-5-(1H-benzotriazole-5-carbonyl)-hexahydro-pyrrolo[3,4-c]pyrrol-2-yl]-ethanone] | 1710
Cc1cc(OCC(=O)N2C[C@@H]3CN(C(=O)c4ccc5[nH]nnc5c4)C[C@H]3C2)c(C(C)C)cc1C#N [Example 19.05, 4-{2-[(3aS,6aS)-5-(1H-benzotriazole-5-carbonyl)-hexahydro-pyrrolo[3,4-c]pyrrol-2-yl]-2-oxo-ethoxy}-5-isopropyl-2-methyl-benzonitrile] | 5
O=C(c1ccc2ccccc2c1)N1C[C@@H]2CN(C(=O)c3ccc4[nH]nnc4c3)C[C@H]2C1 [Example 19.06, (1H-benzotriazol-5-yl)-[(3aR,6aR)-5-(naphthalene-2-carbonyl)-hexahydro-pyrrolo[3,4-c]pyrrol-2-yl]-methanone] | 250
COc1cc(C(=O)N2C[C@@H]3CN(C(=O)c4ccc5[nH]nnc5c4)C[C@H]3C2)cc2ccccc12 [Example 19.07, (1H-benzotriazol-5-yl)-[(3aS,6aS)-5-(4-methoxy-naphthalene-2-carbonyl)-hexahydro-pyrrolo[3,4-c]pyrrol-2-yl]-methanone] | 24
CCOc1cc(C#N)ccc1OCC(=O)N1C[C@@H]2CN(C(=O)c3ccc4[nH]nnc4c3)C[C@H]2C1 [Example 19.08, 4-{2-[(3aS,6aS)-5-(1H-benzotriazole-5-carbonyl)-hexahydro-pyrrolo[3,4-c]pyrrol-2-yl]-2-oxo-ethoxy}-3-ethoxy-benzonitrile] | 36
O=C(CCc1ccc(OC(F)(F)F)c(F)c1)N1C[C@@H]2CN(C(=O)c3ccc4[nH]nnc4c3)C[C@H]2C1 [Example 19.09, 1-[(3aR,6aR)-5-(1H-benzotriazole-5-carbonyl)-hexahydro-pyrrolo[3,4-c]pyrrol-2-yl]-3-(3-fluoro-4-trifluoromethoxy-phenyl)-propan-1-one] | 10
CC(C)c1cc(Cl)ccc1OCC(=O)N1C[C@@H]2CN(C(=O)c3ccc4[nH]nnc4c3)C[C@H]2C1 [Example 19.10, 1-[(3aS,6aS)-5-(1H-benzotriazole-5-carbonyl)-hexahydro-pyrrolo[3,4-c]pyrrol-2-yl]-2-(4-chloro-2-isopropyl-phenoxy)-ethanone] | 6
O=C(c1ccc(-c2ccc(Cl)cc2)cc1)N1C[C@@H]2CN(C(=O)[C@@H]3CCc4[nH]nnc4C3)C[C@H]2C1 [Example 19.11, [(3aS,6aS)-5-(4′-chloro-biphenyl-4-carbonyl)-hexahydro-pyrrolo[3,4-c]pyrrol-2-yl]-(R)-4,5,6,7-tetrahydro-1H-benzotriazol-5-yl-methanone] | 8
O=C(CCc1ccc(OC(F)(F)F)cc1)N1C[C@H]2CN(C(=O)c3ccc4[nH]nnc4c3)C[C@@H]2C1 [Example 19.12, 1-[(3aS,6aS)-5-(1H-benzotriazole-5-carbonyl)-hexahydro-pyrrolo[3,4-c]pyrrol-2-yl]-3-(4-trifluoromethoxy-phenyl)-propan-1-one] | 10
O=C(COc1ccccc1C1CCCO1)N1C[C@@H]2CN(C(=O)c3ccc4[nH]nnc4c3)C[C@H]2C1 (stereo partly drawn) [Example 19.14, 1-[(3aS,6aS)-5-(1H-benzotriazole-5-carbonyl)-hexahydro-pyrrolo[3,4-c]pyrrol-2-yl]-2-[2-(tetrahydro-furan-2-yl)-phenoxy]-ethanone] | 273
COc1cc(C(=O)N2C[C@H]3CN(C(=O)c4ccc5[nH]nnc5c4)C[C@@H]3C2)cc2ccccc12 [Example 19.15, (1H-benzotriazol-5-yl)-[(3aR,6aR)-5-(4-methoxy-naphthalene-2-carbonyl)-hexahydro-pyrrolo[3,4-c]pyrrol-2-yl]-methanone] | 20
CC(C)(C)c1ccccc1OCC(=O)N1C[C@@H]2CN(C(=O)c3ccc4[nH]nnc4c3)C[C@H]2C1 [Example 19.16, 1-[(3aS,6aS)-5-(1H-benzotriazole-5-carbonyl)-hexahydro-pyrrolo[3,4-c]pyrrol-2-yl]-2-(2-tert-butyl-phenoxy)-ethanone] | 31
O=C(c1ccc2[nH]nnc2c1)N1C[C@H]2CN(C(=O)[C@H]3CC[C@H](c4ccc(Cl)cc4)CC3)C[C@@H]2C1 [Example 19.17, [(3aR,6aR)-5-(1H-benzotriazole-5-carbonyl)-hexahydro-pyrrolo[3,4-c]pyrrol-2-yl]-[trans-4-(4-chloro-phenyl)-cyclohexyl]-methanone] | 10
Cc1cc(CCC(=O)N2C[C@@H]3CN(C(=O)c4ccc5[nH]nnc5c4)C[C@H]3C2)c(C(C)C)cc1C#N [Example 19.21, 4-[3-[(3aR,6aR)-5-(1H-benzotriazole-5-carbonyl)-1,3,3a,4,6,6a-hexahydropyrrolo[3,4-c]pyrrol-2-yl]-3-oxopropyl]-2-methyl-5-propan-2-ylbenzonitrile] | 3
CC(C)c1cc(C#N)ccc1CCC(=O)N1C[C@@H]2CN(C(=O)c3ccc4[nH]nnc4c3)C[C@H]2C1 [Example 19.22, 4-[3-[(3aR,6aR)-5-(1H-benzotriazole-5-carbonyl)-1,3,3a,4,6,6a-hexahydropyrrolo[3,4-c]pyrrol-2-yl]-3-oxopropyl]-3-propan-2-ylbenzonitrile] | 2
O=C(c1ccc2[nH]nnc2c1)N1C[C@H]2CN(C(=O)C3CCN(c4ccc(Cl)cc4)CC3)C[C@@H]2C1 [Example 19.23, [(3aR,6aR)-5-[1-(4-chlorophenyl)piperidine-4-carbonyl]-1,3,3a,4,6,6a-hexahydropyrrolo[3,4-c]pyrrol-2-yl]-(1H-benzotriazol-5-yl)methanone] | 25
CC(C)Oc1cc(C(=O)N2C[C@@H]3CN(C(=O)[C@@H]4CCc5[nH]nnc5C4)C[C@H]3C2)cc2ccccc12 [Example 19.24, [(3aS,6aS)-5-[(5R)-4,5,6,7-tetrahydro-1H-benzotriazole-5-carbonyl]-1,3,3a,4,6,6a-hexahydropyrrolo[3,4-c]pyrrol-2-yl]-(4-propan-2-yloxynaphthalen-2-yl)methanone] | 7
CC(C)Oc1cc(C(=O)N2C[C@@H]3CN(C(=O)[C@@H]4CCc5[nH]nnc5C4)C[C@H]3C2)nc2ccccc12 [Example 19.25, [(3aS,6aS)-5-[(5R)-4,5,6,7-tetrahydro-1H-benzotriazole-5-carbonyl]-1,3,3a,4,6,6a-hexahydropyrrolo[3,4-c]pyrrol-2-yl]-(4-propan-2-yloxyquinolin-2-yl)methanone] | 15
O=C(CCc1ccc(OC(F)(F)F)cc1F)N1C[C@@H]2CN(C(=O)[C@@H]3CCc4[nH]nnc4C3)C[C@H]2C1 [Example 19.26, 1-[(3aR,6aR)-5-[(5R)-4,5,6,7-tetrahydro-1H-benzotriazole-5-carbonyl]-1,3,3a,4,6,6a-hexahydropyrrolo[3,4-c]pyrrol-2-yl]-3-[2-fluoro-4-(trifluoromethoxy)phenyl]propan-1-one] | 5

Source: patent publication US10669268B2, “Bicyclic derivatives” (Hoffmann-La Roche Inc., priority 2012, dated 2020)
